# Measurements: US12129237B2, “Substituted diaminocarboxamide and diaminocarbonitrile pyrimidines, compositions thereof, and methods of treatment therewith” (SIGNAL PHARMACEUTICALS, LLC, priority 2011, dated 2024)
# Molecular target: T1, JNK1 (Homo sapiens, UniProt P45983)
# T1 construct: purchased Carna Biosciences
# Assay: JNK1 biochemical assays (one or more of: time resolved fluorescence, Z'-LYTE Cascade, radioactive)
# Conditions: Table 2; JNK1 IC50 activity level; read-out: Act. Level
# Description: JNK1 Assay. A 384-well time resolved fluorescence assay was used to monitor JNK1 activity. The JNK1 assay was run in the following assay buffer: 50 mM HEPES, 10 mM MgCl2, 1 mM EGTA, 2 mM DTT, and 0.01% Tween 20. To initiate the reaction 100 nM of ULight™-labeled 4EBP1 peptide (Perkin-Elmer) and 5 μM of ATP were mixed with 500 pM of JNK1 (Carna Biosciences), for a total assay volume of 20 μL in each well. The assay was incubated at room temperature for 1 h and terminated using a mixture of 30 mM EDTA and 4 nM Eu-anti-4EBP1, by adding 20 μL of stop solution to each well. Plates were read on a Perkin-Elmer Envision Reader.
# JNK1 Assay. The JNK1 Z′-LYTE® Cascade kinase assay was run in the following buffer: 50 mM HEPES at pH 7.5, 0.01% BRIJ-35, 10 mM MgCl2, 1 mM EGTA, and 1 mM DTT. […] The assay was incubated at room temperature for 1 h. […] The data was then read on a fluorescence plate reader and analyzed.
# JNK1 assay. The radioactive JNK kinase assay was carried out in a 96-well plate format at a final volume of 100 μL. […] JNK1 was diluted in the following dilution buffer (20 mM HEPES pH 7.6, 0.1 mM EDTA, 2.5 mM MgCl2, 0.004% (w/v) Triton X100, 2 μg/ml Leupeptin, 20 mM B-glycerol phosphate, 0.1 mM Na3VO4 dithiothreitol) and then pre-mixed with cJun diluted in the substrate solution buffer (20 mM HEPES pH 7.6, 50 mM NaCl, 0.1 mM EDTA, 2.5 mM MgCl2, 0.05% (w/v) Triton X100). […] The enzyme, substrate and inhibitor mixture was allowed to equilibrate at room temperature for 15 minutes. The reaction was started by the addition of 10 μL of 10×ATP in kinase buffer (130 mM MgCl2, 6 mM dithiothreitol, 150 mM para-nitrophenyl phosphate, 100 μCi/ml γ-[^33P]-ATP). Reactions were allowed to proceed for 60 minutes before precipitation of protein via trichloroacetic acid (7.2% TCA final). […] The precipitate was washed with Phosphate Buffered Saline and the amount of phosphate incorporated into cJun was quantified by scintillation counting using a Packard Topcount-NXT. All assays were conducted under conditions where phosphate incorporation was linear with respect to time and enzyme concentration.
# T1 sequence (P45983 whole entry): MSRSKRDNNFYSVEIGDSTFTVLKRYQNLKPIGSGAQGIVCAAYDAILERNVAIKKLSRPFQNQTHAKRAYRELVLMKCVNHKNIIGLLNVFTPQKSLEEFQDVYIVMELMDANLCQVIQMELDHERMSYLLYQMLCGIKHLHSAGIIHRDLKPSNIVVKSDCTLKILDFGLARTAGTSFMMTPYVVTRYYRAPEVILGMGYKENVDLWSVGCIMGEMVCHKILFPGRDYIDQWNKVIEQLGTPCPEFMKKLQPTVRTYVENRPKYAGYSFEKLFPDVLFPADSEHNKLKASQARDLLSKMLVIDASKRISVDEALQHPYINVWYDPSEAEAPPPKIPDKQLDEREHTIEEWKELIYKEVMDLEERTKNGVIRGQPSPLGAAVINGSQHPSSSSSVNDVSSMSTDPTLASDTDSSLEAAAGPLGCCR
row,IC50,Compound
1,< 200 nM,"CCOC(=O)N1CCC(Nc2ncc(C(N)=O)c(Nc3ccccc3)n2)CC1 [Example B-48, ethyl 4-(5-carbamoyl-4-(phenylamino)pyrimidin-2-ylamino)piperidine-1-carboxylate]"
2,< 200 nM,"CCC(C)Nc1ncc(C(N)=O)c(Nc2ccccc2)n1 (centres unmarked) [Example B-46, 2-(sec-butylamino)-4-(phenylamino)pyrimidine-5-carboxamide]"
3,< 200 nM,"CC1CCC(Nc2ncc(C(N)=O)c(Nc3ccccc3)n2)CC1 (centres unmarked) [Example B-47, 2-(4-methylcyclohexylamino)-4-(phenylamino)pyrimidine-5-carboxamide]"
4,< 200 nM,"NC(=O)c1cnc(NC2CCOCC2)nc1Nc1ccc2cn[nH]c2c1 [Example B-3, 4-(1H-indazol-6-ylamino)-2-(tetrahydro-2H-pyran-4-ylamino)pyrimidine-5-carboxamide]"
5,200 to 800 nM,"NC(=O)c1cnc(NCc2ccc(F)c(F)c2)nc1Nc1ccccc1 [Example B-70, 2-(3,4-difluorobenzylamino)-4-(phenylamino)pyrimidine-5-carboxamide]"

# Same assay, conditions: Table 3; JNK1 IC50 activity level; read-out: Act. Level
row,IC50,Compound
1,200 to 800 nM,"CC(C)(C)Nc1ncc(C#N)c(NC(C)(C)C)n1 [Example C-63, 2,4-bis(tert-butylamino)pyrimidine-5-carbonitrile]"
2,< 200 nM,"CN(C)C(=O)[C@H]1CC[C@H](Nc2ncc(C#N)c(N[C@@H]3CCCC[C@H](O)C3)n2)CC1 [Example C-45, (1R,4r)-4-(5-cyano-4-((1R,3S)-3-hydroxycycloheptylamino)pyrimidin-2-ylamino)-N,N-dimethylcyclohexanecarboxamide]"
3,< 200 nM,"C[C@]1(O)CCC[C@@H](Nc2nc(N[C@H]3CC[C@H](OC(F)F)CC3)ncc2C#N)C1 [Example C-44, 2-((1r,4R)-4-(difluoromethoxy)cyclohexylamino)-4-((1R,3S)-3-hydroxy-3-methylcyclohexylamino) pyrimidine-5-carbonitrile]"
4,< 200 nM,"CCO[C@H]1CC[C@H](Nc2ncc(C#N)c(N[C@@H]3CCCC[C@H](O)C3)n2)CC1 [Example C-29, 2-((1r,4R)-4-ethoxycyclohexylamino)-4-((1R,3S)-3-hydroxycycloheptylamino) pyrimidine-5-carbonitrile]"
5,< 200 nM,"N#Cc1cnc(N[C@H]2CC[C@H](OC(F)F)CC2)nc1N[C@@H]1CCCC[C@H](O)C1 [Example C-32, 2-((1r,4R)-4-(difluoromethoxy)cyclohexylamino)-4-((1R,3S)-3-hydroxycycloheptylamino) pyrimidine-5-carbonitrile]"

# Same assay, conditions: one or more of the JNK1 biochemical assays; read-out: Act. Level (JNK1 IC50 activity level)
row,IC50,Compound
1,< 200 nM,"CC(C)(Nc1nc(N[C@H]2CC[C@H](O)CC2)ncc1C(N)=O)C1CC1 [Example 316, 4-(2-cyclopropylpropan-2-ylamino)-2-((1r,4r)-4-hydroxycyclohexylamino)pyrimidine-5-carboxamide]"
2,< 200 nM,"NC(=O)c1cnc(N[C@H]2CC[C@H](OCC(F)(F)F)CC2)nc1N[C@@H]1CCC[C@@H]1CO [Example 266, 4-((1R,2S)-2-(hydroxymethyl)cyclopentylamino)-2-((1r,4R)-4-(2,2,2-trifluoroethoxy)cyclohexylamino)pyrimidine-5-carboxamide]"
3,< 200 nM,"CC1(Nc2nc(N[C@H]3CC[C@H](OC(F)F)CC3)ncc2C(N)=O)CCC1 [Example 416, 2-((1r,4r)-4-(difluoromethoxy)cyclohexylamino)-4-(1-methylcyclobutylamino)pyrimidine-5-carboxamide]"
4,< 200 nM,"CN(C)C(=O)[C@H]1CC[C@H](Nc2ncc(C(N)=O)c(NC3(C)CCC3)n2)CC1 [Example 414, 2-((1r,4r)-4-(dimethylcarbamoyl)cyclohexylamino)-4-(1-methylcyclobutylamino)pyrimidine-5-carboxamide]"
5,< 200 nM,"NC(=O)c1cnc(N[C@H]2CC[C@H](O)CC2)nc1NCC1CC1 [Example 226, 4-(cyclopropylmethylamino)-2-((1r,4r)-4-hydroxycyclohexylamino)pyrimidine-5-carboxamide]"
6,< 200 nM,"CC[C@H](C)Nc1ncc(C(N)=O)c(N[C@@H]2CC[C@@H](C)[C@H](O)C2)n1 [Example 398, 2-(sec-butylamino)-4-((1R,3R,4R)-3-hydroxy-4-methylcyclohexylamino)pyrimidine-5-carboxamide]"
7,< 200 nM,"C[C@@H](Nc1nc(N[C@H]2CC[C@H](O)CC2)ncc1C(N)=O)C1CC1 [Example 261, 4-((R)-1-cyclopropylethylamino)-2-((1r,4R)-4-hydroxycyclohexylamino)pyrimidine-5-carboxamide]"
8,< 200 nM,"CO[C@H]1CC[C@H](Nc2ncc(C(N)=O)c(NC3CCC3C)n2)CC1 (some centres unmarked) [Example 242, 2-((1r,4r)-4-methoxycyclohexylamino)-4-(2-methylcyclobutylamino)pyrimidine-5-carboxamide]"
9,< 200 nM,"CCO[C@H]1CC[C@H](Nc2ncc(C(N)=O)c(NC(C)(C)C3CC3)n2)CC1 [Example 314, 4-(2-cyclopropylpropan-2-ylamino)-2-((1r,4r)-4-ethoxycyclohexylamino)pyrimidine-5-carboxamide]"
10,< 200 nM,"CC(C)(C)Nc1nc(N[C@@H]2CCC[C@H](O)C2)ncc1C(N)=O [Example 307, 4-(tert-butylamino)-2-((1R,3S)-3-hydroxycyclohexylamino)pyrimidine-5-carboxamide]"
11,< 200 nM,"CC1(Nc2nc(NC3CCOCC3)ncc2C(N)=O)CCC1 [Example 413, 4-(1-methylcyclobutylamino)-2-(tetrahydro-2H-pyran-4-ylamino)pyrimidine-5-carboxamide]"
12,< 200 nM,"NC(=O)c1cnc(NC2CCCC2)nc1N[C@@H]1CCC[C@H](O)C1 [Example 439, 2-(cyclopentylamino)-4-((1R,3S)-3-hydroxycyclohexylamino)pyrimidine-5-carboxamide]"

# Same assay, conditions: tested in one or more of the JNK1 biochemical assays; read-out: Act. Level (JNK1 biochemical assay IC50 activity level)
row,IC50,Compound
1,< 200 nM,"CO[C@H]1CC[C@H](Nc2ncc(C(N)=O)c(N[C@H]3CC[C@@H](O)CC3)n2)CC1 [Example A-101, 4-((1s,4s)-4-hydroxycyclohexylamino)-2-((1r,4r)-4-methoxycyclohexylamino)pyrimidine-5-carboxamide]"
2,< 200 nM,"CCO[C@H]1CC[C@H](Nc2ncc(C(N)=O)c(NC3CCC3)n2)CC1 [Example A-197, 4-(cyclobutylamino)-2-((1r,4r)-4-ethoxycyclohexylamino)pyrimidine-5-carboxamide]"
3,< 200 nM,"CO[C@H]1CC[C@H](Nc2ncc(C(N)=O)c(NC3COCC(O)C3)n2)CC1 (some centres unmarked) [Example A-13, 4-(5-hydroxytetrahydro-2H-pyran-3-ylamino)-2-((1r,4r)-4-methoxycyclohexylamino)pyrimidine-5-carboxamide]"
4,200 to 800 nM,"COC[C@H]1CC[C@@H](Nc2nc(NC3CCN(C(C)=O)CC3)ncc2C(N)=O)CC1 [Example A-83, 2-(1-acetylpiperidin-4-ylamino)-4-((1s,4s)-4-(methoxymethyl)cyclohexylamino)pyrimidine-5-carboxamide]"
5,1000 to 10000 nM,"NC(=O)c1cnc(NC2CCC2)nc1N[C@H]1CC[C@@H](C(=O)NC2CC2)CC1 [Example A-132, 2-(cyclobutylamino)-4-((1s,4s)-4-(cyclopropylcarbamoyl)cyclohexylamino)pyrimidine-5-carboxamide]"
6,< 200 nM,"NC(=O)c1cnc(N[C@H]2CC[C@H](O)CC2)nc1NC1CCCCC1 [Example A-144, 4-(cyclohexylamino)-2-((1r,4r)-4-hydroxycyclohexylamino)pyrimidine-5-carboxamide]"
7,< 200 nM,"CCO[C@H]1CC[C@H](Nc2ncc(C(N)=O)c(NC3CCC[C@H]3O)n2)CC1 (stereo partly drawn) [Example A-66, 2-((1r,4R)-4-ethoxycyclohexylamino)-4-((1R,2R)-2-hydroxycyclopentylamino)pyrimidine-5-carboxamide]"
8,< 200 nM,"NC(=O)c1cnc(NC2CCOCC2)nc1N[C@@H]1CCC[C@H]1O [Example A-7, 4-((1R,2R)-2-hydroxycyclopentylamino)-2-(tetrahydro-2H-pyran-4-ylamino)pyrimidine-5-carboxamide]"
9,< 200 nM,"CC(C)Nc1nc(N[C@H]2CC[C@H](OC(F)F)CC2)ncc1C(N)=O [Example A-191, 2-((1r,4r)-4-(difluoromethoxy)cyclohexylamino)-4-(isopropylamino)pyrimidine-5-carboxamide]"
10,< 200 nM,"CO[C@H]1CC[C@H](Nc2ncc(C(N)=O)c(N[C@@H]3CCC[C@H]3O)n2)CC1 [Example A-65, 4-((1R,2R)-2-hydroxycyclopentylamino)-2-((1r,4R)-4-methoxycyclohexylamino)pyrimidine-5-carboxamide]"
11,< 200 nM,"NC(=O)c1cnc(NC2CCCCC2)nc1N[C@H]1CC[C@@H](C(N)=O)CC1 [Example A-146, 4-((1s,4s)-4-carbamoylcyclohexylamino)-2-(cyclohexylamino)pyrimidine-5-carboxamide]"
12,< 200 nM,"CO[C@H]1CC[C@H](Nc2ncc(C(N)=O)c(NC3CCC4(CC3)OCCO4)n2)CC1 [Example A-121, 4-(1,4-dioxaspiro[4.5]decan-8-ylamino)-2-((1r,4r)-4-methoxycyclohexylamino)pyrimidine-5-carboxamide]"
13,< 200 nM,"C[C@]1(O)CCC[C@@H](Nc2nc(N[C@H]3CC[C@H](O)CC3)ncc2C(N)=O)C1 [Example A-177, 4-((1R,3S)-3-hydroxy-3-methylcyclohexylamino)-2-((1r,4R)-4-hydroxycyclohexylamino)pyrimidine-5-carboxamide]"
14,< 200 nM,"NC(=O)c1cnc(N[C@H]2CC[C@H](O)CC2)nc1NC1CCC1 [Example A-176, 4-(cyclobutylamino)-2-((1r,4r)-4-hydroxycyclohexylamino)pyrimidine-5-carboxamide]"
15,< 200 nM,"NC(=O)c1cnc(N[C@H]2CC[C@H](O)CC2)nc1N[C@@H]1CCCOC1 [Example A-193, 2-((1r,4R)-4-hydroxycyclohexylamino)-4-((R)-tetrahydro-2H-pyran-3-ylamino)pyrimidine-5-carboxamide]"
16,< 200 nM,"C[C@@H]1CC[C@@H](Nc2nc(N[C@H]3CC[C@H](O)CC3)ncc2C(N)=O)C[C@H]1O [Example A-179, 4-((1R,3R,4R)-3-hydroxy-4-methylcyclohexylamino)-2-((1r,4R)-4-hydroxycyclohexylamino)pyrimidine-5-carboxamide]"
